# Results from paper PMC12802961 (Journal of Antimicrobial Chemotherapy, 2025).
# Columns and labels:
# [1] = Protein binding, equilibrium dialysis chamber, LC-MS/MS; format: in vitro ADME
# From the text: […]. […] […].
# . […] Free drug concentrations were used in all calculations. […]
# [2] = tested on: P. aeruginosa 132; experiment: Neutropenic murine thigh infection model; format: in vivo, Pseudomonas aeruginosa
# Experimental: (§1) All dosing regimens were performed in at least two animals per dosing regimen.
# (§2) At t = 0 h, 2 h after infection, two mice were humanely euthanized to determine the initial number of cfu/thigh just before treatment. […] Subsequently, thighs were homogenized using the Ultra-Turrax homogenizer (IKA Labortechnik, Germany). For each thigh 10-fold dilution series were prepared and 3 × 10 µL per dilution were plated (Chromagar, bioMérieux, NL). The following day, colonies were counted and the number of cfu/thigh was calculated.
# (§3) Free drug concentrations were used in all calculations.
# [3] = tested on: P. aeruginosa 106; experiment: Neutropenic murine thigh infection model; format: in vivo, Pseudomonas aeruginosa
# Experimental: as §1, §2, §3
# [4] = tested on: E. coli 52; experiment: Checkerboard broth microdilution MIC of cefepime alone and with taniborbactam; format: cell-based, Escherichia coli
# From the text: (§4) Four previously well-characterized cefepime-resistant isolates, namely one ESBL-producing E. coli, one ESBL-producing K. pneumoniae and two P. aeruginosa (one VIM- and one AmpC constitutively -producing), were used.
# [5] = tested on: K. pneumoniae 59; experiment: as above; format: cell-based, Klebsiella pneumoniae
# From the text: as §4
# [6] = Single-dose plasma pharmacokinetics, s.c., infected neutropenic mice; settings: cefepime; one-compartment model; serum/plasma, s.c., infected mice
# Experimental: All animal procedures were carried out in the Animal Facility for Medical and Scientific Purposes of the University General Hospital Attikon (EL 25 BIO 014), Athens, Greece. […] Outbred female CD-1 mice, obtained by the Hellenic Pasteur Institute, Greece, and Charles River Laboratories Models and Services, Germany, were used at the age of 7–8 weeks, weighing 20–25 g. The animals were allowed to acclimatize for at least 5 days upon arrival and were housed under standard conditions with water and food supplied ad libitum. […] Infection was induced (Day 0) by intramuscular injection of 0.05 mL bacterial inoculum of approximately 10^5–10^6 cfu/thigh.
# The dose was administered s.c. (0.1 mL) 2 h after infection (t = 0 h). Blood samples were collected in 1 mL K3EDTA tubes through orbital sinus bleeding under isoflurane anaesthesia. Animals were immediately euthanized through cervical dislocation and blood samples taken at timepoints 0, 0.08, 0.25, 0.5, 0.75, 1, 1.5, 2, 3, 4, 6, and 8 h after single dose injection. Blood samples were centrifuged immediately after collection in a pre-cooled centrifuge, and plasma was stored at −80°C. For each timepoint two animals were euthanized in order to have duplicates for each condition.
# The Cmax values were calculated from raw data and the AUCs were calculated using the trapezoidal rule. […] Equations used in the program were the classical polyexponential equations Ci(t) = PolyExp(i, n, t), where i = number of the compartments, n = number of doses and t = time from last dose (http://www.boomer.org/c/p4/c19/c19.pdf). The %fT > Ct was then determined using a bisectional rootfinder for intersections between simulated curve and concentration, and calculating the difference between intersection values. Free drug concentrations were used in all calculations.
# For taniborbactam, a population pharmacokinetic model was developed using nonlinear mixed-effects modelling (NONMEM). The analysis was performed on the natural logarithm of the concentrations using the FOCE method with INTERACTION. All mice were assumed to weigh 1kg, resulting in PK parameters corresponding to a per kg base. […] Tools used to evaluate and visualize the model were RStudio (v0.98.1049), R (v3.1.2), XPose (v4.5.3) and PsN (v4.6.0), all with the graphical interface Pirana (v2.9.0).
# To determine the structural pharmacokinetic model 1-, 2- and 3-compartment models were tested. Pharmacokinetic parameters were estimated in terms of central and peripheral volume of distribution (Vc and Vp), clearance (CL), and intercompartmental clearance (Q). Addition of interindividual variability (IPV), described using an exponential eta model, was evaluated for each pharmacokinetic parameter. The covariance between values for IPV was estimated using a […] matrix. Residual variability between observed and predicted plasma concentrations was described using an additional error model for logarithmically transformed data. The minimum value of objective function (OFV) was used as a criterion for model selection. […] Model adequacy was further evaluated by using various residual plots (‘goodness-of-fit’ plots) and values of random effects in variances. In the second step relationships between pharmacokinetic parameters and potential covariates were investigated. […] Dose covariates were modelled by using an exponential model, place of infection was modelled proportionally. Criteria for the inclusion of covariates in the model were the OFV, results of graphical evaluation of the parameter-covariate relationship and the decrease in parameter variability.
# Three procedures were used to validate the final model. As an internal validation method, a bootstrap resampling method was used. Bootstrap datasets (n=1000) were generated by sampling randomly from the original dataset with replacement. Parameters were estimated for each of the replicate datasets using the developed model.
# [7] = tested on: E. coli 52; experiment: Neutropenic murine thigh infection model; format: in vivo, Escherichia coli
# Experimental: as §1, §2, §3
# [8] = cefepime monotherapy q2h, extrapolated
# [9] = cefepime monotherapy, extrapolated
smiles,measurement,setting,value
"CO/N=C(\C(=O)N[C@@H]1C(=O)N2C(C(=O)[O-])=C(C[N+]3(C)CCCC3)CS[C@H]12)c1csc(N)n1 [cefepime, Cefepime]",fraction unbound,[1],0.8
same,"1 log10 kill: q2h dose, mg/kg",[2]; cefepime monotherapy,59.9 mg/kg
same,1 log10 kill: %ƒT > MIC,[2]; cefepime monotherapy q2h,32.4%
same,"1 log10 kill: Total daily dose, mg/kg",[2]; cefepime monotherapy q2h,718.3 mg/kg
same,Stasis: %ƒT > MIC,[2]; cefepime monotherapy q2h,8.9%
same,Stasis: Total daily dose,[2]; cefepime monotherapy q2h s.c. 24 h,180.8 mg/kg
same,Cefepime %fT > potMIC,"[2]; cefepime q2h 8 mg/kg, potMIC 1 mg/L (with 4 mg/L taniborbactam)",46.10%
same,1 log10 kill: %ƒT > MIC,[3]; [8],(47.4) %
same,"1 log10 kill: Total daily dose, mg/kg",[3]; [8],(3484.4) mg/kg
same,Stasis: %ƒT > MIC,[3]; [8],(36.9) %
same,"Stasis: Total daily dose, mg/kg","[3]; cefepime monotherapy q2h s.c. 24 h, extrapolated",(1901.6) mg/kg
same,"1 log10 kill: q2h dose, mg/kg",[3]; [9],(290.4) mg/kg
same,"Stasis: q2h dose, mg/kg",[3]; [9],(158.5) mg/kg
same,Cefepime %fT > MIC,"[3]; cefepime q2h 64 mg/kg, MIC 32 mg/L",22.10%
same,Cefepime MIC at taniborbactam 0.03 mg/L,"[4]; E. coli 52, +taniborbactam 0.03 mg/L",0.5 µg/mL
same,Cefepime MIC at taniborbactam 0.06 mg/L,"[4]; E. coli 52, +taniborbactam 0.06 mg/L",0.5 µg/mL
same,Cefepime MIC at taniborbactam 0.125 mg/L,"[4]; E. coli 52, +taniborbactam 0.125 mg/L",0.25 µg/mL
same,Cefepime MIC at taniborbactam 0.25 mg/L,"[4]; E. coli 52, +taniborbactam 0.25 mg/L",0.125 µg/mL
same,Cefepime MIC at taniborbactam 0.5 mg/L,"[4]; E. coli 52, +taniborbactam 0.5 mg/L",0.06 µg/mL
same,Cefepime MIC at taniborbactam 1 mg/L,"[4]; E. coli 52, +taniborbactam 1 mg/L",0.125 µg/mL
same,Cefepime MIC at taniborbactam 2 mg/L,"[4]; E. coli 52, +taniborbactam 2 mg/L",0.06 µg/mL
same,Cefepime MIC at taniborbactam 4 mg/L (potMIC),"[4]; E. coli 52, +taniborbactam 4 mg/L",0.06 µg/mL
same,MIC,"[4]; Escherichia coli, 52, read-out: Cefepime MIC (mg/L) alone",32 mg/L
same,Cefepime MIC at taniborbactam 0.03 mg/L,"[5]; K. pneumoniae 59, +taniborbactam 0.03 mg/L",64 µg/mL
same,Cefepime MIC at taniborbactam 0.06 mg/L,"[5]; K. pneumoniae 59, +taniborbactam 0.06 mg/L",32 µg/mL
same,Cefepime MIC at taniborbactam 0.125 mg/L,"[5]; K. pneumoniae 59, +taniborbactam 0.125 mg/L",8 µg/mL
same,Cefepime MIC at taniborbactam 0.25 mg/L,"[5]; K. pneumoniae 59, +taniborbactam 0.25 mg/L",2 µg/mL
same,Cefepime MIC at taniborbactam 0.5 mg/L,"[5]; K. pneumoniae 59, +taniborbactam 0.5 mg/L",1 µg/mL
same,Cefepime MIC at taniborbactam 1 mg/L,"[5]; K. pneumoniae 59, +taniborbactam 1 mg/L",1 µg/mL
same,Cefepime MIC at taniborbactam 2 mg/L,"[5]; K. pneumoniae 59, +taniborbactam 2 mg/L",1 µg/mL
same,Cefepime MIC at taniborbactam 4 mg/L (potMIC),"[5]; K. pneumoniae 59, +taniborbactam 4 mg/L",0.5 µg/mL
same,MIC,"[5]; Klebsiella pneumoniae, 59, read-out: Cefepime MIC (mg/L) alone",256 mg/L
same,absorbance rate Ka,[6],15 h⁻¹
same,1 log10 kill: %ƒT > MIC,[7]; [8],(53.9) %
same,"1 log10 kill: Total daily dose, mg/kg",[7]; [8],(5237.2) mg/kg
same,Stasis: %ƒT > MIC,[7]; [8],(36.5) %
same,"Stasis: Total daily dose, mg/kg","[7]; cefepime monotherapy q2h s.c. 24 h, extrapolated, Emax model",(1857.2) mg/kg
same,"1 log10 kill: q2h dose, mg/kg",[7]; [9],(436.4) mg/kg
same,"Stasis: q2h dose, mg/kg",[7]; [9],(154.8) mg/kg
same,Cefepime %fT > potMIC,"[7]; cefepime q2h 4 mg/kg, potMIC 0.06 mg/L (with 4 mg/L taniborbactam)",80.70%
